According to PubChem BioAssay AID1261 (University of Pittsburgh Molecular Library Screening Center, 2008):
Inconclusive results are not listed. Active and inactive are the calls of the source. How the calls were made is not given here.

Target: Tyrosine-protein phosphatase YopH [Yersinia enterocolitica]
Assay: potency against Yersinia YopH phosphatase – biochemical, 10-point dose range, dose response (AID 1261)
Settings: YopH phosphatase enzymatic assay, IC50, 3 runs; for inhibition: at 50 µM, stronger effect = higher value

Compound | inhibition [%] | IC50
COc1ccccc1-c1c(C)nn2c(N3CCCCCC3)cc(C)nc12 | -1.28 | –
COc1ccccc1N1C(C)=CC(=C(C#N)c2nc3ccccc3s2)C=C1C | -2.35 | –
Cc1ccc2c(C)[nH]c(=O)cc2c1 | 0.968 | –
C=CCc1cccc2cc(C(=O)Nc3ccc(S(=O)(=O)Nc4nnc(CC)s4)cc3)c(=O)oc12 | 23.8 | –
O=C(COC(=O)c1ccc([N+](=O)[O-])s1)Nc1ccccc1 | -23.9 | –
CCN(CC)c1ccc(/C=N/Nc2cccc(C)c2)c(O)c1 | 9.95 | > 50 µM (inactive)
COc1ccc(/C=N/NC(=O)C(C)n2cnc3ccccc3c2=O)cc1OC (stereo not given) | 8.51 | –
CCOC(=O)c1c(C)oc2c1c(C=NCc1ccccn1)c(O)c1ccccc12 | 2.53 | –
O=C(NC(Cc1c[nH]c2ccccc12)c1nnc2n1CCCCC2)c1cccs1 (stereo not given) | 0.82 | –
CCOC(=O)C(NC(=O)Nc1ccccc1)(OCC)C(F)(F)F (stereo not given) | 2.58 | –
CCOC(=O)c1nc(C)n(-c2ccc(Cl)cc2)n1 | -5.92 | –
N#Cc1ccccc1Cn1cc(C#N)c2ccccc21 | -11.8 | –
CC(C(=O)N1CCCc2c1c(=O)oc1ccc(O)cc21)N1CCc2ccccc2C1 (stereo not given) | 0.0785 | –
O=C(O)c1ccccc1SCC(=O)N1c2ccccc2Sc2ccccc21 | -57.4 | –
COC(=O)Cc1cnc(NC(=O)C2C3CCC(C3)C2C(=O)O)s1 (stereo not given) | -18.2 | –
Cc1ccc(C(=O)N2C(=S)C(c3ccc(F)cc3)=NC23CCN(C)CC3)cc1 | -3.79 | –
O=C(Nc1nnc(C(F)(F)F)s1)c1ccc(N2C(=O)C3C4C=CC(C4)C3C2=O)cc1 (stereo not given) | -8.43 | –
CCCCOC(=O)C1=C(C)NC2(O)c3ccccc3C(=O)C12O (stereo not given) | 36.9 | > 50 µM (inactive)
Cc1[nH]n(-c2ccccc2)c(=O)c1C(C[N+](=O)[O-])c1ccc(Cl)cc1 (stereo not given) | -6.86 | –
Nc1nnc2c(n1)CCCC2 | 23 | –
Oc1ccc(C=Nc2ccc3ncccc3c2)c(O)c1 | -3.62 | –
Cc1csc(N2CCc3ccccc32)n1 | -9.56 | –
CC(=O)c1ccc(NC2=C(N3CCOCC3)C(=O)c3ccccc3C2=O)cc1 | 30.4 | –
O=C(CSc1nnc(-c2ccccc2)o1)n1c2c(c3ccccc31)CCCC2 | -10.9 | –
CCN(CC)CCCNC(=O)Cc1c(C(=O)O)n(C)c2ccccc12 | -8.3 | –
CC1=CC(=C(C#N)c2nc3ccccc3s2)C=C(C)N1c1ccc(F)cc1F | 1.55 | –

Compound | inhibition [%] | IC50
CCOC(=O)Oc1ccc2oc(=O)cc(C)c2c1 | -13.7 | –
Cc1oc2ccccc2c1-c1cn2c(n1)SCC2 | -2.41 | –
O=C(c1cccs1)N1CCN=C1SCc1cccnc1 | -11.7 | –
CC1(C)COC(/C=C/c2ccc([N+](=O)[O-])cc2)=N1 | -8.03 | –
COc1ccc(CN2C(=O)c3ccccc3C(/C=N\OCc3ccc(F)cc3)C2=O)cc1 (stereo not given) | 3.35 | –
CCOC(=O)/C(N=Nc1ccc(F)cc1)=C(/O)c1ccc([N+](=O)[O-])cc1 | -5.66 | > 50 µM (inactive)
COc1ccc(CCN2C(=O)c3ccncc3C2=O)cc1OC | 0.113 | –
COc1ccc2cc(-c3cc(C(=O)OCC(=O)NC4CCS(=O)(=O)C4)c4ccccc4n3)ccc2c1 (stereo not given) | 3.98 | –
CCCNc1nc2c(c(=O)[nH]c(=O)n2C)n1Cc1ccc(F)cc1 | -11.6 | –
O=C(CSc1ncn[nH]1)c1ccc2c(c1)OCO2 | -17.6 | –
Nc1c(NCc2ccccc2F)c(=O)[nH]c(=O)n1Cc1ccccc1 | 33.1 | –
CCCCn1c(N)c(NCCC(C)C)c(=O)[nH]c1=O | 33 | –
CN(CC(=O)N1CCCc2c1c(=O)oc1ccc(O)cc21)Cc1ccccc1 | -1.35 | –
CCOC(=O)C1=C(C)NC2(O)c3ccccc3C(=O)C12O (stereo not given) | 40 | > 50 µM (inactive)
Cc1ccc(C(c2sc3nc(C)nn3c2O)N2CCOCC2)cc1 (stereo not given) | -10.3 | –
Cc1cccc(OCCCCc2c(C)n[nH]c2C)c1 | -10.5 | –
CCN(CC)c1ccc(NC(=O)c2cccc(OC)c2)c(C)c1 | -4.28 | –
CN(C(=O)COc1ccc(C(C)(C)C)cc1)C1CCS(=O)(=O)C1 (stereo not given) | -19.1 | –
CC1=C(C)C(=O)C(CCCCC#CCCCC#CCO)=C(C)C1=O | 0.676 | > 50 µM (inactive)
Cn1c(COc2ccccc2)nnc1SCc1nc2ccccc2[nH]1 | -3.78 | –
COc1ccc(NC2=C(NCCO)C(=O)c3ccccc3C2=O)cc1 | 20.2 | > 50 µM (inactive)
CCO/C=C1\C(=O)N(c2ccccc2)C(=O)c2ccccc21 | 39.1 | –
CCOC(=O)N1CCN(C(=O)Cn2c(C)cc3ccccc3c2=O)CC1 | -14.1 | –
COC(=O)c1ccc(Cl)c(NC(=O)CN2CCN(Cc3ccccc3)CC2)c1 | -9.15 | –
Nc1cccc(C2=Nc3cccc4cccc(c34)N2)c1 | 75.9 | –
COCCCNC(=O)CC(NS(=O)(=O)c1ccc(F)cc1)c1ccc(OC)cc1 (stereo not given) | -10.7 | –

Compound | inhibition [%] | IC50
Cc1ccc(C(C[N+](=O)[O-])c2c(C)[nH]n(-c3ccccc3)c2=O)cc1 (stereo not given) | -20.8 | –
O=C(NC(C(=O)O)c1ccccc1)c1ccc(S(=O)(=O)N2CCOCC2)cc1 (stereo not given) | -10.8 | –
CCN(CC)c1ccc(/C=N/Nc2ccccc2)c(O)c1 | -13.5 | > 50 µM (inactive)
CC1=C(C(=O)OCC(C)C)C2(O)C(=O)c3ccccc3C2(O)N1 (stereo not given) | 31.7 | > 50 µM (inactive)
COC(=O)N(NC(=O)C(O)(CCC(C)C)CCC(C)C)c1ccccc1 | 4.94 | –
O=C1C(Nc2ccccc2)=C(N2CCCCC2)C(=O)c2ccccc21 | 41.9 | –
O=[N+]([O-])c1ccc(-c2csc3[n+]2CCS3)cc1 | 20.8 | –
CCN(CC)c1ccc(C=Nc2ccccc2)c(O)c1 | 17.6 | –
O=C1c2ccccc2C(=O)C12OC2c1cccc2ccccc12 (stereo not given) | 80.3 | –
COc1ccc2c(c1)c(=O)cc(C)n2CC(=O)NCc1ccco1 | -3.64 | –
Cc1ccc(NC2=C(N3CCOCC3)C(=O)c3ccccc3C2=O)cc1 | 18 | –
O=C(CN1C(=O)C2CC=CCC2C1=O)Nc1nnc(SCc2ccc(Cl)cc2)s1 (stereo not given) | -4.26 | –
CC(=O)NC1=C(N(C)C2CCS(=O)(=O)C2)C(=O)c2ccccc2C1=O (stereo not given) | 9.79 | –
O=C(OCC1O[C@@H](OC(=O)c2cc(O)c(O)c(O)c2)[C@@H](OC(=O)c2cc(O)c(O)c(O)c2)[C@@H](OC(=O)c2cc(O)c(O)c(O)c2)[C@@H]1OC(=O)c1cc(O)c(O)c(O)c1)c1cc(O)c(O)c(O)c1 (stereo not given in full) | 72.5 | –
CC(=O)OCCCNc1cc(SCc2ccco2)c2nonc2c1[N+](=O)[O-] | -2.61 | –
Cc1ccc(CSCCNC(=O)CN2C(=O)c3ccccc3S2(=O)=O)cc1 | -6.7 | –
N#Cc1c(N)n(CCNC(=O)c2cccs2)c2nc3ccccc3nc12 | -16.9 | –
c1ccc(-c2csc3ncnc(NCCCN4CCOCC4)c23)cc1 | -1.85 | –
CCC(=O)N1Cc2ccccc2-c2ccccc2C1=O | -4.86 | –
O=C(/C=C/c1ccc([N+](=O)[O-])cc1)OCC(=O)N1c2ccccc2Sc2ccccc21 | -1.56 | –
CCN(CC)c1ccc(/C=N/Nc2ccc(C)cc2)c(O)c1 | 9.55 | > 50 µM (inactive)
O=C(NN=c1c(=O)c2ccccc2c1=O)c1ccccc1 | -14.5 | –
COc1ccc(NC(=O)/C(=C/c2cccnc2)NC(=O)c2cccs2)cc1 | -16.6 | –
S=c1[nH]nc(-c2ccccc2)n1/N=C/C=C/c1ccco1 | 3.47 | –
CC(=O)[C@H]1[C@@H]2C(=O)N(c3cccc(Cl)c3)C(=O)[C@@H]2[C@H]2c3ccccc3C=CN21 | 5.01 | –
COc1ccc(-c2nnc(SCC(=O)c3cccs3)o2)c(OC)c1 | -10.6 | –

Compound | inhibition [%] | IC50
COC(=O)C1C(C(C)C)N(c2ccccc2)OC1(C)O (stereo not given) | -0.943 | –
CCO/C=C1/C(=O)N(Cc2ccccc2)C(=O)c2ccccc21 | 49.7 | –
Cc1nc2ccccc2c(=O)n1NC(=O)c1c(O)c2c(n(CC(C)C)c1=O)CCCC2 | -4.05 | –
CCOC(=O)c1ccc(NS(=O)(=O)c2cc(-c3nnnn3C(C)C)ccc2OC)cc1 | -7.2 | –
Cc1ccc(S(=O)(=O)N2CCCC(C(=O)NCc3ccco3)C2)cc1Cl (stereo not given) | 12.9 | –
Cc1noc(NS(=O)(=O)c2ccc(NC(=O)CCCOc3ccc(Cl)cc3Cl)cc2)c1C | -12.1 | –
CC(C)(C)c1cc(OC(=O)c2ccncc2)ccc1O | 30.2 | –
CCOc1ccc(-c2nnc3ccc(SCC(=O)Nc4nc5ccccc5s4)nn23)cc1 | -11.8 | –
COc1cccc(-c2nc(CS(=O)(=O)CC(=O)N3CCc4ccccc4C3)c(C)o2)c1 | -0.295 | –
COc1cc(NCCCCCCCN)c2ncccc2c1 | 56.5 | –
COC(=O)CSc1nnc(CNC(=O)c2cccc(C)c2)n1-c1ccccc1OC | -14.7 | –
CC1CCN(CCC(=O)N2CCCc3c2c(=O)oc2ccc(O)cc32)CC1 | -1.24 | –
O=C1CC(N(O)c2ccccc2)C(=O)N1Cc1ccccc1 (stereo not given) | -4.47 | –
CCc1cc[n+](C2=C([O-])c3ccccc3C(=O)/C2=N\S(=O)(=O)c2cccs2)cc1 | 2.75 | –
N[C@@H](C(=O)N[C@@H]1C(=O)N2C(C(=O)O)=C(Cl)CS[C@H]12)c1ccccc1 | -8.78 | –
C=CCOC(=O)C1=C(C)NC2(O)c3ccccc3C(=O)C12O (stereo not given) | 24.6 | > 50 µM (inactive)
O=c1[nH]c(Nc2ccc(F)cc2)cc2ccccc12 | 28.2 | –
O=c1cc(CN2CCN(c3ccccc3F)CC2)c2cc(O)c(-c3ccccc3)cc2o1 | 4.58 | –
Cc1cc(C)nc(SCC(=O)Oc2ccc3oc(=O)cc(C)c3c2)n1 | -24.4 | –
Cc1ccc(NC(=O)c2ccnc(C(C)(C)C)c2)cc1 | -1.22 | –
CC(=O)N1C(=O)/C(=C2\SC(=S)N(c3c(C)n(C)n(-c4ccccc4)c3=O)C2=O)c2ccccc21 | 4.95 | –
CCc1ccc(S(=O)(=O)/N=C2/C=C(Sc3ncn[nH]3)C(=O)c3ccccc32)cc1 | 17.2 | –
O=C(O)c1ccc(NC2=C(N3CCOCC3)C(=O)c3ccccc3C2=O)cc1 | -0.899 | –
Cc1ccc(NC2=C(NCCO)C(=O)c3ccccc3C2=O)cc1 | 7.47 | > 50 µM (inactive)
Cc1ccc(N2C(=O)[C@@H]3[C@H](C2=O)C2c4ccccc4C=CN2[C@@H]3C(=O)c2ccco2)cc1 (stereo not given in full) | -1.17 | –
O=C(O)C1OC(Oc2cc3oc(-c4ccccc4)cc(=O)c3c(O)c2O)C(O)C(O)C1O (stereo not given) | -26.6 | –
